Results reported in patent US20130280391A1, “ANTI-MICROBIAL WASH COMPOSITIONS INCLUDING CERAGENIN COMPOUNDS AND METHODS OF USE FOR TREATING NON-MEAT FOOD PRODUCTS” (BRIGHAM YOUNG UNIVERSITY, priority 2012, published 2013).

How the values were obtained:
Salmonella bacteria = assay: Example 2: killing of Salmonella inoculated on food product samples by dip in wash composition; type: cell-based; settings: 30 second dip; for level of Salmonella bacteria in the rinsate: positive control nearly 10^3.5 CFUs/mL
Method: (§1) Example 2 was performed to determine the effectiveness of an anti-microbial wash composition including a ceragenin compound in controlling growth of Salmonella bacteria by fighting off a Salmonella inoculation. Example 3 was similarly performed to determine the effectiveness of the wash composition in controlling growth of Campylobacter bacteria by fighting off a Campylobacter inoculation. Examples 2 and 3 simulate the effectiveness of the present anti-microbial wash compositions to kill Salmonella and Campylobacter on a food product where the food product has become contaminated with Salmonella bacteria or Campylobacter bacteria.
(§2) A total of 15 food product samples were used for these tests. The 15 samples were divided into five groups of three each. Three samples were left untreated to serve as a negative control in order to observe natural levels of bacteria present on the samples. The remaining 12 samples were then inoculated with 1 mL of Salmonella and 1 mL of Campylobacter. The samples were allowed to dry for 20 minutes in order for the bacteria to adhere to the surface of the food product samples. One group of three of the inoculated samples, designated the positive control, were then rinsed with a wash composition including no anti-microbial agent to determine the level of bacteria after inoculation.
(§3) Each sample was withdrawn after 30 seconds. […] Each sample was withdrawn after 30 seconds. The fifth group of three inoculated samples was dipped one by one into a comparative proprietary non-CSA wash composition. Each of the samples was then rinsed, and the rinsate was collected to determine the levels and types of bacteria from each group. […] In other words, there were no changes to color, texture, taste, or smell, as a result of application of the ceragenin wash compositions.
In other words, the wash composition including 500 ppm ceragenin compound killed 100% of Salmonella bacteria present.

Campylobacter bacteria = assay: Example 3: killing of Campylobacter inoculated on food product samples by dip in wash composition; type: cell-based; settings: 30 second dip; for log reduction of Campylobacter: versus positive control
Method: as §1, §2, §3
In other words, the treatment was effective in killing 93.7% of the Campylobacter bacteria. […] In other words, the treatment was effective in killing 80% of the Campylobacter bacteria.

[1] = 1000 ppm by weight aqueous wash

## CCCCCCCCOC(=O)CC[C@@H](C)[C@H]1CC[C@H]2[C@@H]3[C@H](OC(=O)CCN)C[C@@H]4C[C@H](OC(=O)CCN)CC[C@]4(C)[C@H]3C[C@H](OC(=O)CCN)[C@]12C [CSA-44]
Salmonella bacteria; 500 ppm by weight aqueous wash
  Salmonella bacteria killed: 100%
  level of Salmonella bacteria in the rinsate: no detectable level of Salmonella bacteria
Salmonella bacteria; [1]
  level of Salmonella bacteria in the rinsate: no detectable level of Salmonella bacteria
Campylobacter bacteria; 500 ppm by weight aqueous wash
  Campylobacter bacteria killed: 93.7%
  log reduction of Campylobacter: 1.2 log
Campylobacter bacteria; [1]
  Campylobacter bacteria killed: 80%
  log reduction of Campylobacter: 0.8 log
